Patent US20240279215A1 (Cytokinetics, Incorporated, priority 2022, published 2024)

Molecular target: human NAMPT (Homo sapiens (Human), UniProt P43490)
Assay: NMN fluorescence biochemical assay (human recombinant NAMPT enzyme assay)
In short: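 Activation of recombinant human NAMPT (6 nM) was tested with 2.5 mM ATP, 20 μM PRPP and 150 μM nicotinamide in 50 mM HEPES pH 7.2 for 60 min at ambient temperature. NMN was derivatized with acetophenone/KOH/formic acid and read by fluorescence (355/460 nm) after 40 min.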

Chain of human NAMPT (P43490 whole entry): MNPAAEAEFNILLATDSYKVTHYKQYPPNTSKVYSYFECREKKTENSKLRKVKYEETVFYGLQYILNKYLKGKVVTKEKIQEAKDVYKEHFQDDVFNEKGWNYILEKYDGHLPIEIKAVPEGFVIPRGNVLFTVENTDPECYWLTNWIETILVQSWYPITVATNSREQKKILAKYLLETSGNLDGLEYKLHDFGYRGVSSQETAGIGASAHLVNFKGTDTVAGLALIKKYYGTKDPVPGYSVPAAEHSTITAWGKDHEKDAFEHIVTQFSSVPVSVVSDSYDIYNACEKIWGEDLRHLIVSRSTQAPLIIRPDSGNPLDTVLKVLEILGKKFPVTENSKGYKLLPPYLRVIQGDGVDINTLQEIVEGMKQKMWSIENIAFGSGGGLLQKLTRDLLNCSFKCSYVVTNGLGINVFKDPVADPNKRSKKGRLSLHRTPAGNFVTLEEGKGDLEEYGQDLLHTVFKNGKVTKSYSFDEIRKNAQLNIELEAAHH

| AC1.4 Human [µM] | EC50 [µM] | SMILES |
| --- | --- | --- |
| 0.98 | 5.01 | CC1(C)CCN(Cc2ccc(NC(=O)OCc3ccc(Cl)cc3)cc2)C1=O [Compound 123, (4-chlorophenyl)methyl N-{4-[(3,3-dimethyl-2-oxopyrrolidin-1-yl)methyl]phenyl}carbamate] |
| 0.98 | 15.3 | CN1CCC(C(=O)NCc2ccc(NC(=O)OCc3ccc(Cl)cc3)cc2)CC1=O (centres unmarked) [Compound 124, (4-chlorophenyl)methyl N-(4-{[(1-methyl-2-oxopiperidin-4-yl)formamido]methyl}phenyl)carbamate] |
| 0.98 | 6.02 | Cc1nc(C)c(C(=O)N[C@@H](C)c2ccc(NC(=O)OCc3ccc(Cl)cc3)cc2)o1 [Compound 125, 4-chlorobenzyl (S)-(4-(1-(2,4-dimethyloxazole-5-carboxamido)ethyl)phenyl)carbamate] |
| 0.99 | 4.06 | O=C(Nc1ccc(CNC(=O)c2ccncc2)cc1)OCc1ccc(Cl)cc1 [Compound 126, (4-chlorophenyl)methyl N-{4-[(pyridin-4-ylformamido)methyl]phenyl}carbamate] |
| 1.00 | 7.3 | Cc1nn(C)c(C(=O)N(C)Cc2ccc(NC(=O)OCc3ccc(Cl)cc3)cc2)c1C [Compound 127, (4-chlorophenyl)methyl N-(4-{[N-methyl-1-(2,4,5-trimethylpyrazol-3-yl)formamido]methyl}phenyl)carbamate] |
| 1.03 | 4.75 | CN(Cc1ccc(NC(=O)OCc2ccc(Cl)cc2)cc1)C(=O)N1CCCC1 [Compound 128, 4-chlorobenzyl (4-((N-methylpyrrolidine-1-carboxamido)methyl)phenyl)carbamate] |
| 1.03 | 2.22 | CC(C)Cn1nccc1C(=O)N[C@@H](C)c1ccc(NC(=O)OCc2ccc(Cl)cc2)cc1 [Compound 129, (4-chlorophenyl)methyl N-{4-[(1S)-1-{[2-(2-methylpropyl)pyrazol-3-yl]formamido}ethyl]phenyl}carbamate] |
| 1.03 | 8.13 | CN(Cc1ccc(NC(=O)OCc2ccc(Cl)cc2)cc1)C(=O)c1cnco1 [Compound 130, (4-chlorophenyl)methyl N-(4-[(N-methyl-1-1,3-oxazol-5-ylformamido)methyl]phenyl}carbamate] |
| 1.05 | 2.55 | CC(C)n1nccc1C(=O)N(C)Cc1ccc(NC(=O)OCc2ccc(Cl)cc2)cc1 [Compound 131, (4-chlorophenyl)methyl N-(4-{[1-(2-isopropylpyrazol-3-yl)-N-methylformamido]methyl}phenyl)carbamate] |
| 1.07 | 8.6 | Cc1ccc(C(=O)NCc2ccc(NC(=O)OCc3ccc(C(F)F)cc3)cc2)cn1 [Compound 133, (4-(difluoro-13-methyl)phenyl)methyl (4-((6-methylnicotinamido)methyl)phenyl)carbamate] |
| 1.07 | 13.7 | COC1CCN(C(=O)N(C)[C@@H](C)c2ccc(NC(=O)OCc3ccc(Cl)cc3)cc2)CC1 [Compound 134, 4-chlorobenzyl (S)-(4-(1-(4-methoxy-N-methylpiperidine-1-carboxamido)ethyl)phenyl)carbamate] |
| 1.07 | 3.28 | COc1cnn(C)c1C(=O)NCc1ccc(NC(=O)OCc2ccc(Cl)cc2)cc1 [Compound 135, (4-chlorophenyl)methyl N-(4-{[(4-methoxy-2-methylpyrazol-3-yl)formamido]methyl}phenyl)carbamate] |
| 1.09 | 2.23 | Cc1cnc(C(=O)NCc2ccc(NC(=O)OCc3ccc(Cl)cc3)cc2)cn1 [Compound 136, (4-chlorophenyl)methyl N-(4-{[(5-methylpyrazin-2-yl)formamido]methyl}phenyl)carbamate] |
| 1.11 | 3.83 | CCc1cc(C(=O)N[C@@H](C)c2ccc(NC(=O)OCc3ccc(Cl)cc3)cc2)n(C)n1 [Compound 137, (4-chlorophenyl)methyl N-{4-[(1S)-1-[(5-ethyl-2-methylpyrazol-3-yl)formamido]ethyl]phenyl}carbamate] |
| 1.11 | 8.41 | COc1cc(C(=O)NCc2ccc(NC(=O)OCc3ccc(Cl)cc3)cc2)n(C)n1 [Compound 138, (4-chlorophenyl)methyl N-(4-{[(5-methoxy-2-methylpyrazol-3-yl)formamido]methyl}phenyl)carbamate] |
| 1.11 | 13.1 | Cc1cc(C(=O)N[C@@H](C)c2ccc(NC(=O)OCc3ccc(Cl)cc3)cc2)n(C)n1 [Compound 139, (4-chlorophenyl)methyl N-{4-[(1S)-1-[(2,5-dimethylpyrazol-3-yl)formamido]ethyl]phenyl}carbamate] |
| 1.15 | 4.51 | Cc1noc(C(=O)NCc2ccc(NC(=O)OCc3ccc(Cl)cc3)cc2)c1C [Compound 140, (4-chlorophenyl)methyl N-(4-{[(3,4-dimethyl-1,2-oxazol-5-yl)formamido]methyl}phenyl)carbamate] |

| AC1.4 Human [µM] | EC50 [µM] | SMILES |
| --- | --- | --- |
| 1.17 | 2.24 | Cc1nn(C)c(C(=O)N[C@@H](C)c2ccc(NC(=O)OCc3ccc(Cl)cc3)cc2)c1F [Compound 141, (4-chlorophenyl)methyl N-{4-[(1S)-1-[(4-fluoro-2,5-dimethylpyrazol-3-yl)formamido]ethyl]phenyl}carbamate] |
| 1.17 | 7.35 | Cc1cnoc1C(=O)N[C@@H](C)c1ccc(NC(=O)OCc2ccc(Cl)cc2)cc1 [Compound 142, (4-chlorophenyl)methyl N-{4-[(1S)-1-[(4-methyl-1,2-oxazol-5-yl)formamido]ethyl]phenyl}carbamate] |
| 1.18 | 10.8 | C[C@@H](c1ccc(NC(=O)OCc2ccc(Cl)cc2)cc1)N(C)C(=O)N1CCCC1 [Compound 143, 4-chlorobenzyl (S)-(4-(1-(N-methylpyrrolidine-1-carboxamido)ethyl)phenyl)carbamate] |
| 1.18 | 7.67 | CC1CN(C(=O)N[C@@H](C)c2ccc(NC(=O)OCc3ccc(Cl)cc3)cc2)C1 [Compound 144, (4-chlorophenyl)methyl N-{4-[(1S)-1-(3-methylazetidine-1-carbonylamino)ethyl]phenyl}carbamate] |
| 1.19 | 8.23 | CC1CCN(C(=O)N[C@@H](C)c2ccc(NC(=O)OCc3ccc(Cl)cc3)cc2)CC1 [Compound 145, 4-chlorobenzyl (S)-(4-(1-(4-methylpiperidine-1-carboxamido)ethyl)phenyl)carbamate] |
| 1.20 | 2.35 | Cc1ncc(C(=O)NCc2ccc(NC(=O)OCc3ccc(Cl)cc3)cc2)cc1F [Compound 146, (4-chlorophenyl)methyl N-(4-{[(5-fluoro-6-methylpyridin-3-yl)formamido]methyl}phenyl)carbamate] |
| 1.22 | 5.21 | O=C(Nc1ccc(CNC(=O)c2c(F)cncc2F)cc1)OCc1ccc(Cl)cc1 [Compound 147, (4-chlorophenyl)methyl N-(4-{[15.2 (3,5-difluoropyridin-4-yl)formamido]methyl}phenyl)carbamate] |
| 1.23 | 11.5 | COC(=O)N1CCC(c2ccc(NC(=O)OCc3cnco3)cc2)CC1 [Compound 148, methyl 4-(4-(((oxazol-5-ylmethoxy)carbonyl)amino)phenyl)piperidine-1-carboxylate] |
| 1.23 | 7 | C[C@H](NC(=O)c1ccnn1C)c1ccc(NC(=O)OCc2ccc(Cl)cc2)cc1 [Compound 149, (4-chlorophenyl)methyl N-{4-[(1S)-1-[(2-methylpyrazol-3-yl)formamido]ethyl]phenyl}carbamate] |
| 1.24 | 4.31 | Cc1nocc1C(=O)N[C@@H](C)c1ccc(NC(=O)OCc2ccc(Cl)cc2)cc1 [Compound 150, (4-chlorophenyl)methyl N-{4-[(1S)-1-[(3-methyl-1,2-oxazol-4-yl)formamido]ethyl]phenyl}carbamate] |
| 1.25 | 5.89 | O=C(Nc1ccc(C2CCS(=O)(=O)CC2)cc1)OCc1ccc(Cl)cc1 [Compound 151] |
| 1.27 | 10.6 | Cc1ncoc1C(=O)N[C@@H](C)c1ccc(NC(=O)OCc2ccc(Cl)cc2)cc1 [Compound 152, (4-chlorophenyl)methyl N-{4-[(1S)-1-[(4-methyl-1,3-oxazol-5-yl)formamido]ethyl]phenyl}carbamate] |
| 1.27 | 33.8 | O=C(Nc1ccc(Cc2ccncc2)cc1)OCc1cnco1 [Compound 153, oxazol-5-ylmethyl (4-(pyridin-4-ylmethyl)phenyl)carbamate] |
| 1.30 | 12 | C[C@H](NC(=O)N1CCOCC1)c1ccc(NC(=O)OCc2ccc(Cl)cc2)cc1 [Compound 154, 4-chlorobenzyl (S)-(4-(1-(morpholine-4-carboxamido)ethyl)phenyl)carbamate] |
| 1.31 | 5.8 | Cc1coc(C(=O)N(C)Cc2ccc(NC(=O)OCc3ccc(Cl)cc3)cc2)n1 [Compound 155, (4-chlorophenyl)methyl N-(4-{[N-methyl-1-(4-methyl-1,3-oxazol-2-yl)formamido]methyl}phenyl)carbamate] |
| 1.31 | 9.45 | COC(=O)N1CCN(C(=O)Cc2ccc(NC(=O)OCc3ccc(Cl)cc3)cc2)CC1 [Compound 156, methyl 4-(2-(4-((((4-chlorobenzyl)oxy)carbonyl)amino)phenyl)acetyl)piperazine-1-carboxylate] |
| 1.32 | 9.11 | Cc1ncc(C(=O)NCc2ccc(NC(=O)OCc3ccc(Cl)cc3)cc2)o1 [Compound 157, (4-chlorophenyl)methyl N-(4-{[(2-methyl-1,3-oxazol-5-yl)formamido]methyl}phenyl)carbamate] |
